Test results published in PubChem BioAssay (NCI).
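A five-concentration, 48-hour dose response in 96-well plates underlies each endpoint, interpolated linearly between surrounding concentrations. GI50 = concentration required for 50% inhibition of growth. At the TGI there is no net growth.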

Legend:
Assay in all cases: NCI-60 cell line screen, 48 h
MALME-3M melanoma = system: MALME-3M melanoma
SNB-19 CNS = system: SNB-19 CNS
SF-268 CNS = system: SF-268 CNS
OVCAR-5 ovarian = system: OVCAR-5 ovarian
MOLT-4 leukemia = system: MOLT-4 leukemia
M14 melanoma = system: M14 melanoma
NCI-H23 lung = system: NCI-H23 lung
TK-10 renal = system: TK-10 renal
PC-3 prostate = system: PC-3 prostate
A549 NSCLC = system: A549 NSCLC
MCF7 breast = system: MCF7 breast
HCC-2998 colon = system: HCC-2998 colon
SF-539 CNS = system: SF-539 CNS
SK-MEL-2 melanoma = system: SK-MEL-2 melanoma
CCRF-CEM leukemia = system: CCRF-CEM leukemia
T-47D breast = system: T-47D breast
MDA-MB-231 breast = system: MDA-MB-231 breast
LOX IMVI melanoma = system: LOX IMVI melanoma
RPMI-8226 leukemia = system: RPMI-8226 leukemia
U251 CNS = system: U251 CNS
KM12 colon = system: KM12 colon
HCT-15 colon = system: HCT-15 colon
UACC-257 melanoma = system: UACC-257 melanoma
SF-295 CNS = system: SF-295 CNS
HS 578T breast = system: HS 578T breast
HOP-92 NSCLC = system: HOP-92 NSCLC
HCT-116 colon = system: HCT-116 colon
OVCAR-3 ovarian = system: OVCAR-3 ovarian
DU-145 prostate = system: DU-145 prostate
RXF 393 renal = system: RXF 393 renal
SK-MEL-28 melanoma = system: SK-MEL-28 melanoma
OVCAR-4 ovarian = system: OVCAR-4 ovarian
SK-MEL-5 melanoma = system: SK-MEL-5 melanoma
CAKI-1 renal = system: CAKI-1 renal
NCI-H226 lung = system: NCI-H226 lung
MDA-MB-435 = system: MDA-MB-435
NCI/ADR-RES ovarian = system: NCI/ADR-RES ovarian
SNB-75 CNS = system: SNB-75 CNS
HOP-62 NSCLC = system: HOP-62 NSCLC
SW-620 colon = system: SW-620 colon
ACHN renal = system: ACHN renal
EKVX NSCLC = system: EKVX NSCLC
HT29 colon = system: HT29 colon
UO-31 renal = system: UO-31 renal
IGROV1 ovarian = system: IGROV1 ovarian
COLO 205 colon = system: COLO 205 colon
HL-60(TB) leukemia = system: HL-60(TB) leukemia
UACC-62 melanoma = system: UACC-62 melanoma
NCI-H460 lung = system: NCI-H460 lung
A498 renal = system: A498 renal
BT-549 breast = system: BT-549 breast
SR leukemia = system: SR leukemia
OVCAR-8 ovarian = system: OVCAR-8 ovarian
786-0 renal = system: 786-0 renal
SK-OV-3 ovarian = system: SK-OV-3 ovarian
SN12C renal = system: SN12C renal

Compound: C#C[C@]1(O)CC[C@H]2[C@@H]3CC=C4c5sc(Nc6ncccc6C)nc5CC[C@]4(C)[C@H]3CC[C@@]21C
- GI50 (MALME-3M melanoma): 1780 nM
- TGI (MALME-3M melanoma): 4850 nM
- GI50 (SNB-19 CNS): 1880 nM
- TGI (SNB-19 CNS): 6580 nM
- GI50 (SF-268 CNS): 1860 nM
- TGI (SF-268 CNS): 7300 nM
- GI50 (OVCAR-5 ovarian): 1830 nM
- TGI (OVCAR-5 ovarian): 4390 nM
- GI50 (MOLT-4 leukemia): 561 nM
- TGI (MOLT-4 leukemia): 2700 nM
- GI50 (M14 melanoma): 1290 nM
- TGI (M14 melanoma): 3430 nM
- GI50 (NCI-H23 lung): 1770 nM
- TGI (NCI-H23 lung): 6240 nM
- GI50 (TK-10 renal): 2560 nM
- TGI (TK-10 renal): 6820 nM
- GI50 (PC-3 prostate): 603 nM
- TGI (PC-3 prostate): 8670 nM
- GI50 (A549 NSCLC): 2050 nM
- TGI (A549 NSCLC): 12800 nM
- GI50 (MCF7 breast): 1050 nM
- TGI (MCF7 breast): 3150 nM
- GI50 (HCC-2998 colon): 2530 nM
- TGI (HCC-2998 colon): 6710 nM
- GI50 (SF-539 CNS): 335 nM
- TGI (SF-539 CNS): 1310 nM
- GI50 (SK-MEL-2 melanoma): 1280 nM
- TGI (SK-MEL-2 melanoma): 4350 nM
- GI50 (CCRF-CEM leukemia): 1010 nM
- TGI (CCRF-CEM leukemia): 4460 nM
- GI50 (T-47D breast): 2110 nM
- TGI (T-47D breast): 8520 nM
- GI50 (MDA-MB-231 breast): 1650 nM
- TGI (MDA-MB-231 breast): 4390 nM
- GI50 (LOX IMVI melanoma): 1320 nM
- TGI (LOX IMVI melanoma): 2720 nM
- GI50 (RPMI-8226 leukemia): 264 nM
- TGI (RPMI-8226 leukemia): 681 nM
- GI50 (U251 CNS): 753 nM
- TGI (U251 CNS): 3340 nM
- GI50 (KM12 colon): 1660 nM
- TGI (KM12 colon): 4550 nM
- GI50 (HCT-15 colon): 1360 nM
- TGI (HCT-15 colon): 3000 nM
- GI50 (UACC-257 melanoma): 1640 nM
- TGI (UACC-257 melanoma): 4290 nM
- GI50 (SF-295 CNS): 246 nM
- TGI (SF-295 CNS): 694 nM
- GI50 (HS 578T breast): 424 nM
- TGI (HS 578T breast): 2300 nM
- GI50 (HOP-92 NSCLC): 2310 nM
- TGI (HOP-92 NSCLC): 5990 nM
- GI50 (HCT-116 colon): 1040 nM
- TGI (HCT-116 colon): 2510 nM
- GI50 (OVCAR-3 ovarian): 2040 nM
- TGI (OVCAR-3 ovarian): 5290 nM
- GI50 (DU-145 prostate): 2240 nM
- TGI (DU-145 prostate): 7460 nM
- GI50 (RXF 393 renal): 150 nM
- TGI (RXF 393 renal): 456 nM
- GI50 (SK-MEL-28 melanoma): 425 nM
- TGI (SK-MEL-28 melanoma): 1640 nM
- GI50 (OVCAR-4 ovarian): 1900 nM
- TGI (OVCAR-4 ovarian): 11300 nM
- GI50 (SK-MEL-5 melanoma): 1570 nM
- TGI (SK-MEL-5 melanoma): 2960 nM
- GI50 (CAKI-1 renal): 1350 nM
- TGI (CAKI-1 renal): 3280 nM
- GI50 (NCI-H226 lung): 1490 nM
- TGI (NCI-H226 lung): 3400 nM
- GI50 (MDA-MB-435): 2080 nM
- TGI (MDA-MB-435): 6390 nM
- GI50 (NCI/ADR-RES ovarian): 1810 nM
- TGI (NCI/ADR-RES ovarian): 6150 nM
- GI50 (SNB-75 CNS): 568 nM
- TGI (SNB-75 CNS): 5440 nM
- GI50 (HOP-62 NSCLC): 1350 nM
- TGI (HOP-62 NSCLC): 3310 nM
- GI50 (SW-620 colon): 1530 nM
- TGI (SW-620 colon): 3100 nM
- GI50 (ACHN renal): 1850 nM
- TGI (ACHN renal): 10700 nM
- GI50 (EKVX NSCLC): 1340 nM
- TGI (EKVX NSCLC): 9530 nM
- GI50 (HT29 colon): 1600 nM
- TGI (HT29 colon): 3990 nM
- GI50 (UO-31 renal): 1230 nM
- TGI (UO-31 renal): 2820 nM
- GI50 (IGROV1 ovarian): 2450 nM
- TGI (IGROV1 ovarian): 8960 nM
- GI50 (COLO 205 colon): 1800 nM
- TGI (COLO 205 colon): 3900 nM
- GI50 (HL-60(TB) leukemia): 1400 nM
- TGI (HL-60(TB) leukemia): 3760 nM
- GI50 (UACC-62 melanoma): 1550 nM
- TGI (UACC-62 melanoma): 3430 nM
- GI50 (NCI-H460 lung): 1270 nM
- TGI (NCI-H460 lung): 2860 nM
- GI50 (A498 renal): 454 nM
- TGI (A498 renal): 1910 nM
- GI50 (BT-549 breast): 1170 nM
- TGI (BT-549 breast): 4120 nM
- GI50 (SR leukemia): 493 nM
- TGI (SR leukemia): 2460 nM
- GI50 (OVCAR-8 ovarian): 1990 nM
- TGI (OVCAR-8 ovarian): 13600 nM
- GI50 (786-0 renal): 355 nM
- TGI (786-0 renal): 1430 nM
- GI50 (SK-OV-3 ovarian): 1850 nM
- TGI (SK-OV-3 ovarian): 4660 nM
- GI50 (SN12C renal): 1830 nM
- TGI (SN12C renal): 4160 nM
